Assay results as given in US20060276412A1, “METHODS AND COMPOSITIONS FOR MANAGING PSYCHOTIC DISORDERS” (priority 2005, published 2006).

What was measured:
[1] = test system: serotonin (5HT) in medial prefrontal cortex; experiment: Brain microdialysis: serotonin in mPFC; assay type: in vivo, rats; conditions: 3 mg/kg olanzapine
Text: (§1) 62 adult Sprague-Dawley male rats (Harland, Indianapolis) weighing 300-350 g were used in the following studies. The rats were quarantined for at least five days in group housing. Following the quarantine procedure, rats were maintained in individual cages. For surgical implantation with intracerebral guides, guides were inserted directly above either the hypothalamus (HT) (31 rats), or the medial prefrontal cortex (mPFC) (31 rats). Stereotaxic coordinates (Paxinos and Watson, 1986) provided below were used to position the guide cannulae and/or probes: Animals were anesthetiszed according using standard procedures. The head of each animal was shaved from the front of the eyes to the back of the skull. Shaved areas were disinfected, and the animals were placed in stereotaxic frame ear bars. The animal was aligned with the incisor bar. The animal's scalp was cut with a sharp #15 scalpel blade. If the bone began to bleed, bone wax was applied to the incision. Periosteal tissue was cleaned from the skull to the lateral ridges with a cotton swab, and clamps were used to pull the skin out of the way. The probe or guide was placed in the clamp, such that the angled outlet cannula of the microdialysis probe was angled towards the animal's tail. The target coordinates were calculated, and this point was marked on the skull. Two holes in opposing skull bones were drilled for bone anchor screws and thread screws. The dura was torn away with a sharp, pointed object. The guide cannulae were placed at the dorsal/ventral zero point. […] Using dental acrylic, the cannulae were cemented to the bone anchor screws. The cement was allowed to harden and the rodent was removed from the stereotaxic frame. The cranial and caudal aspects of the incision were sutured. The animals were allowed to recover for three to five days. Stylets in the guides were replaced with dialysis probes on the evening prior to study to allow for animal acclimation and to reestablish the integrity of the blood brain barrier. […] Rats were weighed pre-surgery, every 1-2 days post-surgery until time of microdialysis, and postmortem. Microdialysis probes used in the experiments described below were first soaked in standard Ringer's perfusion medium for 30 minutes. Inlet and outlet tubing was connected to each probe using flanged connectors. The outlet tubing was connected to a fraction collector, and the inlet was connected to and […] syringe drive. The probes were immersed in fresh Ringer's solution and flushed with Ringer's perfusion medium at a rate of 2 μl/min for 1 hour. The probe was then transferred to the intracerebral guide on the rat's skull. […] Water was added to obtain a final concentration of 0.3 mg/ml. […] Zonisamide was dissolved in DMSO. […] The final concentration of zonisamide was 7.5 mg/ml. The drug solution was maintained at 37° C. prior to injection. The rats were divided into ten test groups. Five animals were analyzed for each test group. The test groups were as follows: For the microdialysis experiments, perfusion consisted of 2 μl/min delivery of sterile standard Ringer's solution for intervals of 20 minutes. Final collection volumes were 40 μl. 30 μl samples were analyzed for each analyte: DA, NE, 5HT. 12 pre-dose samples and 12 post dose samples were collected every 20 minutes for a duration of 4 hours, both pre-dose and post-dose. Six samples from the pre-dose and post-dose collections were analyzed for norepinephrine. The remaining six samples from the pre-dose and post-dose collections were analyzed for both dopamine and serotonin. Samples were chilled to -80° C. immediately following collection. The samples were analyzed using liquid chromatography with electrochemical detection using conventional techniques. See, e.g., Huang, T., R. et al. (1994) New […] Microbore Columns for Liquid Chromatography. Current Separations 12(4): 191-195. […] Concentrations of each compound are expressed as % baseline.

[2] = test system: alpha-adrenergic receptors; conditions: cited from earlier work
[3] = test system: serotonin (5HT) in hypothalamus; experiment: Brain microdialysis: serotonin in hypothalamus; assay type: in vivo, rats; conditions: 3 mg/kg olanzapine
Text: as §1

dopamine receptors = conditions: cited from earlier work
serotonin receptors = conditions: cited from earlier work
[4] = test system: dopamine (DA) in medial prefrontal cortex; experiment: Brain microdialysis: dopamine in mPFC; assay type: in vivo, rats; conditions: 3 mg/kg olanzapine
Text: as §1

[5] = test system: dopamine (DA) in hypothalamus; experiment: Brain microdialysis: dopamine in hypothalamus; assay type: in vivo, rats; conditions: 3 mg/kg olanzapine
Text: as §1

[6] = cited from earlier work
[7] = test system: norepinephrine (NE) in medial prefrontal cortex; experiment: Brain microdialysis: norepinephrine in mPFC; assay type: in vivo, rats; conditions: 3 mg/kg olanzapine
Text: as §1

[8] = test system: norepinephrine (NE) in hypothalamus; experiment: Brain microdialysis: norepinephrine in hypothalamus; assay type: in vivo, rats; conditions: 3 mg/kg olanzapine
Text: as §1

histaminic receptors = conditions: cited from earlier work

For `Cc1cc2c(s1)Nc1ccccc1N=C2N1CCN(C)CC1` [olanzapine], the “Serotonin concentrations in mPFC” value ([1]; 3 HOUR AVE) was 88.1078 % baseline, the “Serotonin concentrations in mPFC” value ([1]; 40 min post dose) was 115.609 % baseline and the “Serotonin concentrations in mPFC” value ([1]; 80 min post dose) was 101.724 % baseline. For the same compound, the “Serotonin concentrations in mPFC” value ([1]; 120 min post dose) was 88.189 % baseline, the “Serotonin concentrations in mPFC” value ([1]; 160 min post dose) was 92.085 % baseline and the “Serotonin concentrations in mPFC” value ([1]; 200 min post dose) was 119.171 % baseline. The “Serotonin concentrations in mPFC” value ([1]; 240 min post dose) was 83.828 % baseline, the “Serotonin concentrations in mPFC” value ([1]; -20 min pre dose) was 98.453 % baseline and the “Serotonin concentrations in mPFC” value ([1]; -60 min pre dose) was 100.982 % baseline. The “Serotonin concentrations in mPFC” value ([1]; -100 min pre dose) was 100.565 % baseline, the “affinity for alpha-adrenergic receptors” value [2] was “lower affinity” and the “Serotonin concentrations in hypothalamus” value ([3]; 3 HOUR AVE) was 89.0647 % baseline. The “Serotonin concentrations in hypothalamus” value ([3]; 40 min post dose) was 89.816 % baseline, the “Serotonin concentrations in hypothalamus” value ([3]; 80 min post dose) was 86.183 % baseline and the “Serotonin concentrations in hypothalamus” value ([3]; 120 min post dose) was 92.131 % baseline. The “Serotonin concentrations in hypothalamus” value ([3]; 160 min post dose) was 80.560 % baseline, the “Serotonin concentrations in hypothalamus” value ([3]; 200 min post dose) was 98.707 % baseline and the “Serotonin concentrations in hypothalamus” value ([3]; 240 min post dose) was 88.921 % baseline. For the same compound, the “Serotonin concentrations in hypothalamus” value ([3]; -20 min pre dose) was 107.440 % baseline, the “Serotonin concentrations in hypothalamus” value ([3]; -60 min pre dose) was 98.601 % baseline and the “Serotonin concentrations in hypothalamus” value ([3]; -100 min pre dose) was 93.959 % baseline. The “affinity for dopamine receptors” value (dopamine receptors) was “high affinity”, the “affinity for serotonin receptors” value (serotonin receptors) was “high affinity” and the “Dopamine concentrations in mPFC” value ([4]; 3 HOUR AVE) was 209.94 % baseline. The “Dopamine concentrations in mPFC” value ([4]; 40 min post dose) was 227.023 % baseline, the “Dopamine concentrations in mPFC” value ([4]; 80 min post dose) was 266.655 % baseline and the “Dopamine concentrations in mPFC” value ([4]; 120 min post dose) was 219.135 % baseline. The “Dopamine concentrations in mPFC” value ([4]; 160 min post dose) was 186.256 % baseline, the “Dopamine concentrations in mPFC” value ([4]; 200 min post dose) was 202.788 % baseline and the “Dopamine concentrations in mPFC” value ([4]; 240 min post dose) was 153.048 % baseline. The “Dopamine concentrations in mPFC” value ([4]; -20 min pre dose) was 105.509 % baseline, the “Dopamine concentrations in mPFC” value ([4]; -60 min pre dose) was 119.009 % baseline and the “Dopamine concentrations in mPFC” value ([4]; -100 min pre dose) was 75.482 % baseline. For the same compound, the “Dopamine concentrations in hypothalamus” value ([5]; 3 HOUR AVE) was 125.98 % baseline, the “Dopamine concentrations in hypothalamus” value ([5]; 40 min post dose) was 156.507 % baseline and the “Dopamine concentrations in hypothalamus” value ([5]; 80 min post dose) was 110.363 % baseline. The “Dopamine concentrations in hypothalamus” value ([5]; 120 min post dose) was 183.338 % baseline, the “Dopamine concentrations in hypothalamus” value ([5]; 160 min post dose) was 89.032 % baseline and the “Dopamine concentrations in hypothalamus” value ([5]; 200 min post dose) was 113.293 % baseline. For the same compound, the “Dopamine concentrations in hypothalamus” value ([5]; 240 min post dose) was 95.959 % baseline, the “Dopamine concentrations in hypothalamus” value ([5]; -20 min pre dose) was 99.830 % baseline and the “Dopamine concentrations in hypothalamus” value ([5]; -60 min pre dose) was 93.473 % baseline. For the same compound, the “Dopamine concentrations in hypothalamus” value ([5]; -100 min pre dose) was 106.697 % baseline, the “patients with a weight gain of ≧7%” value ([6]; analysis of four studies of various durations) was 40% and the “time at which induced weight gain peaks” value ([6]; noticeable in the first month of treatment) was “about 9 months”. For the same compound, the “Norepinephrine concentrations in mPFC” value ([7]; 3 HOUR AVE) was 154.642 % baseline, the “Norepinephrine concentrations in mPFC” value ([7]; 20 min post dose) was 162.923 % baseline and the “Norepinephrine concentrations in mPFC” value ([7]; 60 min post dose) was 197.693 % baseline. For the same compound, the “Norepinephrine concentrations in mPFC” value ([7]; 100 min post dose) was 159.929 % baseline, the “Norepinephrine concentrations in mPFC” value ([7]; 140 min post dose) was 141.759 % baseline and the “Norepinephrine concentrations in mPFC” value ([7]; 180 min post dose) was 147.978 % baseline. For the same compound, the “Norepinephrine concentrations in mPFC” value ([7]; 220 min post dose) was 117.569 % baseline, the “Norepinephrine concentrations in mPFC” value ([7]; -40 min pre dose) was 98.000 % baseline and the “Norepinephrine concentrations in mPFC” value ([7]; -80 min pre dose) was 119.880 % baseline. For the same compound, the “Norepinephrine concentrations in mPFC” value ([7]; -120 min pre dose) was 82.120 % baseline, the “Norepinephrine concentrations in hypothalamus” value ([8]; 3 HOUR AVE) was 129.18 % baseline and the “Norepinephrine concentrations in hypothalamus” value ([8]; 20 min post dose) was 161.934 % baseline. The “Norepinephrine concentrations in hypothalamus” value ([8]; 60 min post dose) was 148.422 % baseline, the “Norepinephrine concentrations in hypothalamus” value ([8]; 100 min post dose) was 115.418 % baseline and the “Norepinephrine concentrations in hypothalamus” value ([8]; 140 min post dose) was 118.651 % baseline. For the same compound, the “Norepinephrine concentrations in hypothalamus” value ([8]; 180 min post dose) was 113.533 % baseline, the “Norepinephrine concentrations in hypothalamus” value ([8]; 220 min post dose) was 115.014 % baseline and the “Norepinephrine concentrations in hypothalamus” value ([8]; -40 min pre dose) was 105.631 % baseline. For the same compound, the “Norepinephrine concentrations in hypothalamus” value ([8]; -80 min pre dose) was 103.272 % baseline, the “Norepinephrine concentrations in hypothalamus” value ([8]; -120 min pre dose) was 91.097 % baseline and the “affinity for histaminic receptors” value (histaminic receptors) was “lower affinity”.
In the case of `O=C1Cc2cc(CCN3CCN(c4nsc5ccccc45)CC3)c(Cl)cc2N1` [ziprasidone], the “affinity for alpha-adrenergic receptors” value [2] is listed as “high affinity”, the “affinity for dopamine receptors” value (dopamine receptors) is listed as “high affinity” and the “affinity for serotonin receptors” value (serotonin receptors) is listed as “high affinity”. For the same compound, the “affinity for histaminic receptors” value (histaminic receptors) was “medium affinity”.
